We go through 22 compounds from EP2435433B1, “(DIHYDRO)IMIDAZOISO[5,1-A]QUINOLINES AS FSH RECEPTOR AGONISTS FOR THE TREATMENT OF FERTILITY DISORDERS” (Merck Sharp & Dohme B.V., priority 2009, dated 2010).

One test addresses T1, human FSH receptor (Homo sapiens, UniProt P23945).
T1 construct: expressed in transfected cells; host or cells: Chinese Hamster Ovary (CHO) cells, stably transfected, cotransfected with CRE/promotor-firefly luciferase reporter
T1 sequence (P23945 18-695): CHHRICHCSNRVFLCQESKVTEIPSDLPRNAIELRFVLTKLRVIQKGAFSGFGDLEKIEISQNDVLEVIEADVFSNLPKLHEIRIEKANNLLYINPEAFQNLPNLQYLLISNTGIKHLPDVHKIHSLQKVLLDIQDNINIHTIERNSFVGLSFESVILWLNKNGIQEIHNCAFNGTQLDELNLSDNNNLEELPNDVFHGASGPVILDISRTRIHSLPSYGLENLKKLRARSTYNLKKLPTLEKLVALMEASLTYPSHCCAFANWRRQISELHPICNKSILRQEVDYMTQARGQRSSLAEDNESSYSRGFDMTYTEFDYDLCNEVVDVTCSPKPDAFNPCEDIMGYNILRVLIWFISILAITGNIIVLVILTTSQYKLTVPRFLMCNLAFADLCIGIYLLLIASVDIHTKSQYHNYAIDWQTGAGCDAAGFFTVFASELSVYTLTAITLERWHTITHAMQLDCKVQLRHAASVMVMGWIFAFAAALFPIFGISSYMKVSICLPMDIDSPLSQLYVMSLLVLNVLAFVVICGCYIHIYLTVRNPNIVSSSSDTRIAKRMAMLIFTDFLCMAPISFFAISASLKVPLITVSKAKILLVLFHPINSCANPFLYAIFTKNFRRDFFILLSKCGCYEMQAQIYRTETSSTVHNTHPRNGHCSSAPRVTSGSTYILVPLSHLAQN
Description: Agonistic activity of compounds at the human FSH receptor expressed in CHO cells, CRE/luciferase reporter (hFSHRago (CHO luc)). The format is cell-based.
Settings: not given
An excerpt:
The term EC50 means the concentration of the test compound that elicits half-maximal (50 %) stimulation compared to the compound's maximally attainable effect. The values can be determined e.g. in a cell line transfected with a FSH receptor gene and cotransfected with a cAMP responsive element/promoter directing the expression of a reporter gene. Values can be determined using a software program such as MathIQ (version 2.0, ID Business Solutions Limited).
Agonistic activity of the compounds at the human FSH receptor was determined in Chinese Hamster Ovary (CHO) cells stably transfected with the human FSH receptor and cotransfected with a cAMP responsive element (CRE)/promotor directing the expression of a firefly luciferase reporter gene. Binding of the compounds to the Gs protein-coupled FSH receptor will result in an increase of cAMP, which in turn will induce an increased transactivation of the luciferase reporter. Cells (7,500 cells/well of a 384 well plate) were incubated in Dulbecco' minimal essential F12 modified medium (Invitrogen), supplemented with 1 µg/ml bovine insulin, 5 µg/ml human apo-transferrin, 80 U/ml penicillin G and 80 µg/ml streptomycin with the test compounds (concentration between 0.0316 nM and 10.0 µM) in duplicate in a humidified atmosphere (95%) at 5-7% CO2 and 37°C. The final concentration of DMSO was 1%. After 4 hours of incubation, plates were allowed to adjust to room temperature for 1 hour. Then, Luclite (PerkinElmer) solution was added to the wells and cells were allowed to lyse for at least 1 hour at room temperature. Subsequently, luciferase activity was measured in a luminescence counter. The signal is expressed as counts per second (cps). The EC50 (concentration of the test compound that elicits half-maximal (50 %) luciferase stimulation compared to the compound's maximally attainable effect) and efficacy values (maximal effect of the test compound as percentage of the maximal effect of recombinant human FSH) of the compounds were determined using the software program MathIQ (version 2.0, ID Business Solutions Limited). EC50 data are indicated at the synthesis examples.
Background: A reporter such as luciferase makes a cellular process visible.
A word on the EC50: it is the concentration giving half of the maximal effect. As for `COc1cc2c(cc1-c1cccnc1)-c1c(-c3cccs3)nc(C(=O)N(C)C(C)(C)C)n1CC2` [Example 2a], the EC50 came out at 1 nM.

Staying with this test, now noted: CHO cells stably transfected with the human FSH receptor and CRE/firefly luciferase reporter; 4 hours of incubation; half-maximal stimulation relative to the compound's own maximal effect; read-out: hFSHRago (CHO luc) EC50.
As to `COc1cc2c(cc1Br)-c1c(-c3cccs3)nc(C(=O)N(C)C(C)(C)C)n1CC2` [Example 1j, 9-Bromo-8-methoxy-1-thiophen-2-yl-5,6-dihydro-imidazo[5,1-a]isoquinoline-3-carboxylic acid tert-butyl-methyl-amide], the EC50 was found to be 36 nM.
Still for that read-out and setting: the value for `COc1cc2c(cc1-c1ccccn1)-c1c(-c3cccs3)nc(C(=O)N(C)C(C)(C)C)n1CC2` [Example 2b, 8-Methoxy-9-pyridin-2-yl-1-thiophen-2-yl-5,6-dihydro-imidazo[5,1-a]isoquinoline-3-carboxylic acid tert-butyl-methyl-amide] was 13 nM.
Still for that read-out and setting: the value for `COc1cc2c(cc1-c1cccc(F)n1)-c1c(-c3cccs3)nc(C(=O)N(C)C(C)(C)C)n1CC2` [Example 2c, 9-(6-Fluoro-pyrjdin-2-yl)-8-methoxy-1-thiophen-2-yl-5,6-dihydro-imidazo[5,1-a]iso-quinoline-3-carboxylic acid tert-butyl-methyl-amide] was 3 nM.
Still for that read-out and setting: under `COc1cc2c(cc1-c1cccc(N3CCOCC3)n1)-c1c(-c3cccs3)nc(C(=O)N(C)C(C)(C)C)n1CC2` [Example 2d, 8-Methoxy-9-(6-morpholin-4-yl-pyridin-2-yl)-1-thiophen-2-yl-5,6-dihydro-imidazo[5,1-a]isoquinoline-3-carboxylic acid tert-butyl-methyl-amide] stands 100 nM; under `COc1cc2c(cc1-c1cccc(C(F)(F)F)c1)-c1c(-c3cccs3)nc(C(=O)N(C)C(C)(C)C)n1CC2` [Example 2e, 8-Methoxy-1-thiophen-2-yl-9-(3-trifluoromethyl-phenyl)-5,6-dihydro-imidazo[5,1-a]isoquinoline-3-carboxylic acid tert-butyl-methyl-amide], 65 nM.
As to `COc1cc2c(cc1-c1cccc(NC(C)=O)c1)-c1c(-c3cccs3)nc(C(=O)N(C)C(C)(C)C)n1CC2` [Example 2f, 9-(3-Acetylamino-phenyl)-8-methoxy-1-thiophen-2-yl-5,6-dihydro-imidazo[5,1-a]iso-quinoline-3-carboxylic acid tert-butyl-methyl-amide], the EC50 was determined as 1 nM.
Same read-out and setting: the value for `COc1cc2c(cc1-c1cccc(-n3cccn3)c1)-c1c(-c3cccs3)nc(C(=O)N(C)C(C)(C)C)n1CC2` [Example 2g, 8-Methoxy-9-(3-pyrazol-1-yl-phenyl)-1-thiophen-2-yl-5,6-dihydro-imidazo[5,1-a]iso-quinoline-3-carboxylic acid tert-butyl-methyl-amide] was 2 nM; that for `COc1cc2c(cc1-c1cccc(N3CCOCC3)c1)-c1c(-c3cccs3)nc(C(=O)N(C)C(C)(C)C)n1CC2` [Example 2h, 8-Methoxy-9-(3-morpholin-4-yl-phenyl)-1-thiophen-2-yl-5,6-dihydro-imidazo[5,1-a]iso-quinoline-3-carboxylic acid tert-butyl-methyl-amide] was 2 nM; that for `COc1cc2c(cc1-c1cccc(F)c1)-c1c(-c3cccs3)nc(C(=O)N(C)C(C)(C)C)n1CC2` [Example 2i, 9-(3-Fluoro-phenyl)-8-methoxy-1-thiophen-2-yl-5,6-dihydro-imidazo[5,1-a]isoquinoline-3-carboxylic acid tert-butyl-methyl-amide] was 3 nM.
Consider `COc1cc2c(cc1-c1ccccc1C#N)-c1c(-c3cccs3)nc(C(=O)N(C)C(C)(C)C)n1CC2` [Example 2j, 9-(2-Cyano-phenyl)-8-methoxy-1-thiophen-2-yl-5,6-dihydro-imidazo[5,1-a]isoquinoline-3-carboxylic acid tert-butyl-methyl-amide], for which the EC50 was determined as 5 nM.
Still for that read-out and setting: under `COc1cc2c(cc1-c1cccc(N)c1)-c1c(-c3cccs3)nc(C(=O)N(C)C(C)(C)C)n1CC2` [Example 2k, 9-(3-Amino-phenyl)-8-methoxy-1-thiophen-2-yl-5,6-dihydro-imidazo[5,1-a]isoquinoline-3-carboxylic acid tert-butyl-methyl-amide] stands 8 nM; under `COc1cc2c(cc1-c1cccc(N(C)C)c1)-c1c(-c3cccs3)nc(C(=O)N(C)C(C)(C)C)n1CC2` [Example 2l, 9-(3-Dimethylamino-phenyl)-8-methoxy-1-thiophen-2-yl-5,6-dihydro-imidazo[5,1-a]iso-quinoline-3-carboxylic acid tert-butyl-methyl-amide], 9 nM.
Same read-out and setting: under `COc1cc2c(cc1-c1c(C)noc1C)-c1c(-c3cccs3)nc(C(=O)N(C)C(C)(C)C)n1CC2` [Example 2m, 9-(3,5-Dimethyl-isoxazol-4-yl)-8-methoxy-1-thiophen-2-yl-5,6-dihydro-imidazo[5,1-a]iso-quinoline-3-carboxylic acid tert-butyl-methyl-amide] stands 9 nM; under `COc1cc2c(cc1-c1cccc(C(=O)N(C)C)c1)-c1c(-c3cccs3)nc(C(=O)N(C)C(C)(C)C)n1CC2` [Example 2n, 9-(3-Dimethylcarbamoyl-phenyl)-8-methoxy-1-thiophen-2-yl-5,6-dihydro-imidazo[5,1-a]iso-quinoline-3-carboxylic acid tert-butyl-methyl-amide], 11 nM.
The same measure, in the same setting: the value for `COc1cc2c(cc1-c1cccc(N3CCN(C(=O)OC(C)(C)C)CC3)c1)-c1c(-c3cccs3)nc(C(=O)N(C)C(C)(C)C)n1CC2` [Example 2o] was 14 nM.
As for `COc1cc2c(cc1-c1cccc(S(C)(=O)=O)c1)-c1c(-c3cccs3)nc(C(=O)N(C)C(C)(C)C)n1CC2` [Example 2p, 9-(3-Methanesulfonyl-phenyl)-8-methoxy-1-thiophen-2-yl-5,6-dihydro-imidazo[5,1-a]iso-quinoline-3-carboxylic acid tert-butyl-methyl-amide], the 50% effective concentration (EC50) amounted to 15 nM.
On the same count and under the same terms, under `COc1ccccc1-c1cc2c(cc1OC)CCn1c(C(=O)N(C)C(C)(C)C)nc(-c3cccs3)c1-2` [Example 2q, 8-Methoxy-9-(2-methoxy-phenyl)-1-thiophen-2-yl-5,6-dihydro-imidazo [5,1-a]isoquinoline-3-carboxylic acid tert-butyl-methyl-amide] stands 50 nM; under `COc1cc2c(cc1-c1ccc3c(c1)OCO3)-c1c(-c3cccs3)nc(C(=O)N(C)C(C)(C)C)n1CC2` [Example 2r, 9-Benzo[1,3]dioxol-5-yl-8-methoxy-1-thiophen-2-yl-5,6-dihydro-imidazo[5,1-a]iso-quinoline-3-carboxylic acid tert-butyl-methyl-amide], 167 nM; under `C=Cc1cc2c(cc1OC)CCn1c(C(=O)N(C)C(C)(C)C)nc(-c3cccs3)c1-2` [Example 3b, 8-Methoxy-1-thiophen-2-yl-9-vinyl-5,6-dihydro-imidazo[5,1-a]isoquinoline-3-carboxylic acid tert-butyl-methyl-amide], 28 nM.
Take `COc1cc2c(cc1C(=O)Nc1nncs1)-c1c(-c3cccs3)nc(C(=O)N(C)C(C)(C)C)n1CC2` [Example 3e, 8-Methoxy-1-thiophen-2-yl-5,6-dihydro-imidazo[5,1-a]isoquinoline-3,9-dicarboxylic acid 3-(tert-butyl-methyl-amide) 9-[1,3,4]thiadiazol-2-ylamide]: the EC50 turned out to be 3 nM.
Take `CCc1nnc(NC(=O)c2cc3c(cc2OC)CCn2c(C(=O)N(C)C(C)(C)C)nc(-c4cccs4)c2-3)s1` [Example 4, 8-Methoxy-1-thiophen-2-yl-5,6-dihydro-imidazo[5,1-a]isoquinoline-3,9-dicarboxylic acid 3-(tert-butyl-methyl-amide) 9-[(5-ethyl-[1,3,4]thiadiazol-2-yl)-amide]]: the EC50 came to 58 nM.
